Laboratory results from publication PMC7153278, “Discovery of Membrane-Bound Pyrophosphatase Inhibitors Derived from an Isoxazole Fragment” (ACS Medicinal Chemistry Letters, 2020).

Assays:
[1] = molecular target: Thermotoga maritima mPPase (TmPPase) (Thermotoga maritima, UniProt Q9S5X0); assay: TmPPase inhibition assay (96-well plate, orthophosphate determination); type: biochemical; details: for LE (ligand efficiency): computed using the pIC50 and the Heavy Atom Count (LEHA) normalization method, Discovery Studio; for IC50 [CI95%] / IC50: purified TmPPase
Experimental: The inhibition assay was measured in 96 well plate assay as previously reported.5,6 Briefly, 1 µL of purified TmPPase (13 mg/mL) was reactivated in 99 µL of reactivation buffer (20 mM 2-(N-morpholino) ethanesulfonic acid (MES) pH 6.5, 3.5% (v/v) glycerol, 2 mM dithiothreitol (DTT), 4.5% dodecyl maltoside (DDM) and 12 mg/mL L-α-phosphatidylcholine from soybean) and incubated at 55 °C for 15 min. For the assay, to each tube strips, 0.2 µL of the reactivated enzyme was added to 14.8 µL of reaction buffer (200 mM Tris-Cl pH 8.0, 8.0 mM MgCl2, 333 mM KCl, and 67 mM NaCl) and 25 µL of inhibitor. The reaction mixtures were sealed with an adhesive sealing sheet (Thermo Scientific) and incubated at 71 °C for 5 min. The reactions were started with the addition of 10 µL of 2 mM sodium pyrophosphate, further incubation at 71 °C for 5 min and stopped by placing the reaction mixtures on ice for 10 min. The color development was done with the addition of ammonium heptamolybdate + ascorbic acid solution on ice for 10 min and then 90 µL of arsenic solution, at room temperature, for a minimum of 30 min. 180 µL of each reaction mixtures was then transferred into a clear 96 well polystyrene microplate and the absorbance was measured at 860 nm using a microplate spectrophotometer (MultiSkan Go, Thermo Scientific). The pilot inhibitor screening of 16 phosphate-mimicking fragments was done at 100 μM inhibitor concentration. Further screening was done with three different concentrations; 1 μM, 5 μM and 50 μM for soluble compounds, and 1 μM, 5 μM, and 20 μM for sparingly soluble compounds.6 The best hits were validated using 8 concentrations in triplicate in TmPPase.
The potent hits 12k and 12l compounds were then tested on the P. falciparum (PfPPase-VP1) membrane fractions expressed in baculovirus-infected insect cells (the expression method and further enzyme analysis will be described in more detail elsewhere). Briefly, to each tube strips, 2.4 µL of PfPPase-VP1 membrane fraction (5 mg/mL) was added into 12.6 µL of reaction buffer (200 mM Tris-Cl pH 8.0, 8.0 mM MgCl2, 333 mM KCl, 67 mM NaCl, 3.3 mM NaF, and 17 μM Gramicidin D) and 25 µL of inhibitor. The reaction mixtures were incubated at 30 °C for 5 min and the assay was started by the addition of 10 µL of 2 mM sodium pyrophosphate and further incubation at 30 °C for 10 min. The reaction termination and color development were done as before.
The in vitro anti-plasmodial activity assay strain 3D7 was maintained in culture as described previously.7 Briefly, parasites were cultured in O+ human erythrocytes at 5% haematocrit in RPMI - 1640 medium supplemented with 0.5% Albumax II (Gibco, Carlsbad, CA, USA), 200 μM hypoxanthine (Sigma, St. Louis, MO, USA) and 20 μg/mL gentamycin (Gibco). Parasites were synchronized with the sorbitol method as described. 8 Test compound was dissolved in DMSO to make a stock solution of 10 mM. Two -fold serial dilutions of the test compound were made in the culture medium to cover the range of 400 µM – 400 nM. Fifty microliters of each dilution were mixed in 96 well plate with 150 µL of 2% haematocrit of 0.5% parasitemia (ring stage). DMSO concentration in the highest compound concentration w as 0.1%. After 72 h incubation at 37 °C, the parasite growth was quantified using fluorescent SYBR Green I ® -based assay as described. 9 The half-maximal inhibitory concentration (IC 50) of the test compound was assessed using the non-linear regression fit model in Prism 7 (GraphPad Software). The potent anti-malarial drug, artemisinin, was use in parallel as a positive control. Each concentration of the test compound was tested in duplicate and the assay was repeated three times. The mean and standard deviation of the three repeats were used to estimate the IC50.
IC50 determinations were done using R 3.6.110 and the n-parameter logistic regression (nplr) package11 version 0.1-7. In this package, the weighted nplr, given x (compound concentrations) and […]

[2] = Colloidal aggregation under TmPPase assay conditions (nephelometry); type: physicochemical
Experimental: Aggregation data for 5, 12k and 12l (Figure S1)
Potential colloidal aggregation in the TmPPase model system was studied at five concentrations (50 µM, 25 µM, 10 µM, 5 µM, and 1 µM). The original assay conditions were simulated, and the light scattering of potential aggregates in the mixture was studied by nephelometric methods using Nepheloskan Ascent® (Labsystems, Finland). Aggregation of the blank and compounds 5, 12k and 12l were measured as triplicates from one independent experiment at three different voltages (300 V, 400 V and 500 V) at room temperature.
5 µM and 1 µM concentrations the obtained values were close to those observed by the blank, thereby […]
Figure S1. Aggregation data for compounds 5, 12k and 12l. The data, measured in relative nephelometric units (RNU), is shown as the mean ± SD and normalized to the blank.
(1 picture or pasted object on this page, not shown here)
Experimental procedures and characterization data
Commercial analogues were retrieved by screening the ZINC12 database1 (clean drug-like subset; downloaded on 27.04.2016) using a KNIME2 workflow connected to the RDKit3 nodes. The SAR analyses and docking studies (data not shown) underlying this work were conducted using the Schrödinger molecular modeling platform (Canvas and Glide modules, respectively)4 .
Compounds 1–7, 13–20 and 24 were obtained from commercial suppliers. Supporting Information, Table S1 summarizes the compounds tested. Compound purity was >95% as determined by LC-MS and characterized by HRMS. For all commercial compounds after the initial screen, purity was tested independently from the vendor specification (a few compounds of lower purity are reported only in Supporting Information). To evaluate potential aggregation of samples in the TmPPase based assay, aggregate formation in the assay conditions was studied at five concentrations (50 μM, 25 μM, 10 μM, 5 μM, and 1 μM) for compounds 5, 12k and 12l (Figure S1).
All chemicals used were commercially available. Reactions using anhydrous conditions were conducted in oven-dried (130 °C, >24 h) glassware, purged with argon prior to use. Microwave reactions were performed using a Biotage Initiator+ instrument (Uppsala, Sweden). The progress of the reactions was monitored by thin-layer chromatography on silica gel 60-F254 aluminum plates and visualized by using a dual short/long wave (254/366 nm) UV lamp. The combined organic solutions from extractions were dried over anhydrous Na2SO4, filtered and concentrated with a rotary evaporator at reduced pressure. Flash SiO2 column chromatography was performed with automated high performance flash chromatography, Biotage Isolera™ Spektra Systems with ACI™ and Assist (ISO-1SW Isolera One) equipped with a variable UV-VIS (200–800 nm) photodiode array (Uppsala, Sweden) using SNAP KP-SIL/Ultra 10 g or 25 g cartridges and the indicated mobile phase gradient.
The reactions were not optimized and all the yields are given for purified products.
Characterization of the synthesized products were done by NMR and MS analysis. 1H and 13C NMR spectra were acquired at 298 K on a Bruker Ascend 400 MHz – Avance III HD NMR spectrometer (Bruker Corporation, Billerica, MA, USA). Chemical shifts (δ) are reported in parts per million (ppm) relative to the residual solvent signals: CDCl3 7.26 and 77.16 ppm, CD3OD 3.31 and 49.00 ppm, DMSO-d6 2.50 and 39.52 ppm for 1H and 13C NMR, respectively. […] High resolution mass (HRMS-ESI) data was reported for the calculated and experimentally […]

[3] = 95% confidence interval in square brackets

Chain of Thermotoga maritima mPPase (TmPPase) (Q9S5X0 whole entry): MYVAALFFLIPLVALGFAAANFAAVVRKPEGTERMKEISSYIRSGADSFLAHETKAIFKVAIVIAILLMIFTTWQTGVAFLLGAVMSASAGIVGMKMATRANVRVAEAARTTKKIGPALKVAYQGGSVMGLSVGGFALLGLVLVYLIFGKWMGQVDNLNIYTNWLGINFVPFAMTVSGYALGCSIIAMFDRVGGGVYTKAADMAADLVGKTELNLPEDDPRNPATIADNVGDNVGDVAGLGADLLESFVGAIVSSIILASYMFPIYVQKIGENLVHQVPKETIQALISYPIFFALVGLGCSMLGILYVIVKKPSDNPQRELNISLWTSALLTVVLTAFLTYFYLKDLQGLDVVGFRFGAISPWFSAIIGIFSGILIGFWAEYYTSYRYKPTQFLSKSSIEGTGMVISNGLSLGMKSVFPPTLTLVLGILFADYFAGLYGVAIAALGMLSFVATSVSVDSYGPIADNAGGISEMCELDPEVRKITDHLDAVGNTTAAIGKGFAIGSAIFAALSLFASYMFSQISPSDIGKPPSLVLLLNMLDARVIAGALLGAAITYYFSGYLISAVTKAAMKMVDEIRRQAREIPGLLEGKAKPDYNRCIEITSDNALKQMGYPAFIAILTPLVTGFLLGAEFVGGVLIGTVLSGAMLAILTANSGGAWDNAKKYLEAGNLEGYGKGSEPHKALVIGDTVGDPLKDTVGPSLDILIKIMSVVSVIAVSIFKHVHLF

SMILES	IC50 [CI95%] [1, 3]	other results
Cc1nc(-c2cc(C(=O)O)no2)cs1 [Compound 5]		LE (ligand efficiency) [1]: 0.34; aggregation (light scattering) ([2]; 50, 25, 10, 5 and 1 µM, room temperature): no detectable aggregation at all
Cc1cc(C)cc(-c2cc(C(=O)Oc3ccccc3Br)no2)c1 [Compound 12k]		LE (ligand efficiency) [1]: 0.22; aggregation (light scattering) ([2]; at 10 µM, 5 µM and 1 µM): only minor/no detectable aggregation; aggregation (light scattering) ([2]; at 50 µM and 25 µM): showed aggregate formation
Nc1ccc(CO)c(B(O)O)c1 [SI-1]	Inactive	
CCOC(=O)c1cc(-c2cccc(-c3cc(C(=O)OCC)no3)c2)on1 [Compound 10n]		biological activity (in words) ([1]; TmPPase): neither the carboxylic acid 11n nor the ester 10n were notably active
O=C(O)CS(=O)(=O)c1ccccc1[N+](=O)[O-] [SI-4]	Inactive	
CC(C)(C)c1cc(C(=O)NCC(=O)O)cc(C(C)(C)C)c1 [Compound 19]	Inactive	
CC(C)(C)c1cc(C(=O)Nc2ccc(S(N)(=O)=O)cc2)cc(C(C)(C)C)c1 [Compound 14]		LE (ligand efficiency) [1]: 0.16
CCOC(=O)c1cc(-c2ccc(OC)c(S(=O)(=O)Nc3cccc(Cl)c3)c2)on1 [SI-30]	Inactive	
CCOC(=O)c1cc(-c2ccccc2)on1 [Compound 10a]	Inactive	
CCOC(=O)c1cc(-c2ccc(OC)c(S(=O)(=O)NC3CCCC3)c2)on1 [SI-26]	Inactive	
Cc1cc(C)cc(-c2cc(C(=O)Oc3ccccc3)no2)c1 [Compound 27]		LE (ligand efficiency) [1]: 0.20; fold loss of inhibition on removing the bromine atom ([1]; versus 12k): 3.6 fold
O=C1CS(=O)(=O)c2ccccc21 [SI-7]	Inactive	
CCOC(=O)c1cc(-c2ccc(OC)c(S(=O)(=O)Nc3cc(C)on3)c2)on1 [SI-17]		IC50 ([1]; IC50 [CI95%] (µM), unrounded values of the molecular formula strings file): 240 µM; IC50 ([1]; IC50 [CI95%], 95% confidence interval in square brackets): 240 µM
COc1ccc(-c2cc(C(=O)O)no2)cc1S(=O)(=O)N1CCOCC1 [SI-24]	Inactive	
CCOC(=O)c1cc(-c2cccc(C(=O)OC)c2)on1 [Compound 10c]	Inactive	
CC(=O)Nc1ccc(S(=O)(=O)NC(CO)C(=O)O)cc1 (stereo not shown) [SI-10]	Inactive	
CCOC(=O)c1cc(-c2ccc(OC)c(S(=O)(=O)N3CCCc4ccccc43)c2)on1 [SI-20]	Inactive	
